The supplement of paper PMC10331698
± gives the standard deviation of the averaged measurements.

Tests used:
Assay in all cases: level (log10 ratio to DMSO vehicle control); higher = higher biomarker level / cell amount than vehicle control
[1] = compound: OCC(F)(F)C(F)(F)C(F)(F)C(F)(F)C(F)(F)C(F)(F)CO [1H,1H,8H,8H-Perfluorooctane-1,8-diol] (in DMSO)
Description: (§1)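 BioMAP Diversity Plus panel of 12 human primary cell co-culture systems (3C, 4H, LPS, SAg, BT, BF4T, BE3C, CASM3C, HDF3CGF, KF3CT, MyoF, Mphg). Compounds were added 1 h before stimulation and left for 24 h (MyoF 48 h; BT 72 h for soluble read-outs or 6 d for IgG). Biomarkers were read by ELISA, cytotoxicity by SRB, PBMC viability and proliferation by Alamar Blue. Each well value was divided by the mean of 8 DMSO control wells on the same plate and log10 transformed; duplicate blinded samples were tested at 4 concentrations.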

[2] = compound: NS(=O)(=O)C(F)(F)C(F)(F)C(F)(F)C(F)(F)C(F)(F)C(F)(F)C(F)(F)C(F)(F)F [Perfluorooctanesulfonamide] (in DMSO)
Description: as §1

Perfluorononanoic acid = compound: O=C(O)C(F)(F)C(F)(F)C(F)(F)C(F)(F)C(F)(F)C(F)(F)C(F)(F)C(F)(F)F [Perfluorononanoic acid] (in DMSO)
Description: as §1

[3] = compound: O=C(O)C(F)(OC(F)(F)C(F)(OC(F)(F)C(F)(OC(F)(F)C(F)(F)C(F)(F)F)C(F)(F)F)C(F)(F)F)C(F)(F)F [Perfluoro-(2,5,8-trimethyl-3,6,9-trioxadodecanoic)acid] (in DMSO)
Description: as §1

[4] = compound: C=C(C)C(=O)OCCC(F)(F)C(F)(F)C(F)(F)C(F)(F)C(F)(F)C(F)(F)C(F)(F)C(F)(F)F [8:2 Fluorotelomer methacrylate] (in DMSO)
Description: as §1

[5] = compound: OCC(F)(F)C(F)(F)C(F)(F)C(F)F [1H,1H,5H-Perfluoropentanol] (in DMSO)
Description: as §1

[6] = compound: O=C(O)C(F)(F)C(F)(F)C(F)(F)OC(F)(F)F [Perfluoro(4-methoxybutanoic) acid] (in DMSO)
Description: as §1

[7] = compound: O=C(O)C(F)(F)OC(F)(F)C(F)(F)OC(F)(F)C(F)(F)OC(F)(F)C(F)(F)C(F)(F)C(F)(F)F [Perfluoro-3,6,9-trioxatridecanoic acid] (in DMSO); conditions: 6700 nM
Description: as §1

| Test System | level (log10) ([1]; 6700 nM) | level (log10) ([1]; 20000 nM) | level (log10) ([1]; 60000 nM) | level (log10) ([2]; 6700 nM) | level (log10) ([2]; 20000 nM) | level (log10) (Perfluorononanoic acid; 6700 nM) | level (log10) (Perfluorononanoic acid; 20000 nM) | level (log10) ([3]; 1100 nM) | level (log10) ([3]; 3300 nM) | level (log10) ([3]; 10000 nM) | level (log10) ([4]; 6700 nM) | level (log10) ([4]; 20000 nM) | level (log10) ([5]; 6700 nM) | level (log10) ([5]; 20000 nM) | level (log10) ([5]; 60000 nM) | level (log10) ([6]; 6700 nM) | level (log10) ([6]; 20000 nM) | level (log10) ([6]; 60000 nM) | level (log10) [7] |
| --- | --- | --- | --- | --- | --- | --- | --- | --- | --- | --- | --- | --- | --- | --- | --- | --- | --- | --- | --- |
| MyoF:CD106/VCAM-1 | -0.0045 ± 0.0035 | 0.0105 ± 0.0021 | 0.0295 ± 0.011 | -0.005 ± 0.023 | -0.293 ± 0.088 | -0.0475 ± 0.025 | -0.024 ± 0.016 | 0 ± 0.0028 | -0.0035 ± 0.0092 | 0.013 ± 0.0099 | -0.0125 ± 0.012 | 0.002 ± 0.011 | -0.02 ± 0.0099 | -0.0005 ± 0.035 | 0.0165 ± 0.015 | -0.0175 ± 0.0021 | -0.0205 ± 0.0092 | -0.018 ± 0.016 | -0.212 ± 0.048 |
| MyoF:CXCL8/IL-8 | 0 ± 0.0085 | 0.004 ± 0.025 | 0 ± 0.034 | -0.04 ± 0.031 | -0.013 ± 0.0085 | -0.03 ± 0.079 | 0.0445 ± 0.044 | 0.0475 ± 0.077 | 0.005 ± 0.0028 | -0.006 ± 0.016 | 0.0095 ± 0.025 | 0.004 ± 0.0085 | -0.018 ± 0.076 | 0.0485 ± 0.064 | 0.07 ± 0.13 | -0.0145 ± 0.018 | -0.004 ± 0.0042 | 0.01 ± 0.0028 | 0.056 ± 0.0057 |
| MyoF:Collagen I | -0.0045 ± 0.025 | -0.0165 ± 0.013 | -0.0145 ± 0.0035 | -0.018 ± 0.014 | -0.236 ± 0.0028 | -0.017 ± 0.059 | -0.101 ± 0.027 | -0.0495 ± 0.026 | -0.0365 ± 0.0021 | -0.03 ± 0.0071 | -0.0335 ± 0.015 | -0.0125 ± 0.0035 | -0.003 ± 0.0057 | 0.021 ± 0.041 | 0.0305 ± 0.052 | -0.0165 ± 0.0078 | -0.013 ± 0.0028 | -0.011 ± 0.0071 | -0.598 ± 0.0057 |
| MyoF:Collagen III | -0.008 ± 0.013 | -0.016 | -0.005 ± 0.0028 | -0.014 ± 0.0099 | -0.242 ± 0.023 | -0.004 ± 0.0071 | -0.0355 ± 0.018 | -0.008 ± 0.021 | 0.0155 ± 0.00071 | 0.006 | -0.029 ± 0.017 | -0.005 ± 0.028 | -0.0005 ± 0.0092 | 0.0295 ± 0.015 | 0.037 ± 0.045 | -0.006 ± 0.0071 | 0.0015 ± 0.015 | 0.008 ± 0.0057 | -0.894 ± 0.12 |
| MyoF:Collagen IV | -0.014 ± 0.0057 | -0.0115 ± 0.005 | -0.011 ± 0.042 | 0.118 ± 0.015 | 0.28 ± 0.028 | 0.0215 ± 0.022 | 0.221 ± 0.063 | 0.034 ± 0.054 | 0.0255 ± 0.037 | 0.0225 ± 0.025 | -0.0265 ± 0.015 | -0.027 ± 0.025 | -0.001 ± 0.0014 | -0.0005 ± 0.0064 | 0.0095 ± 0.00071 | -0.0165 ± 0.0021 | -0.0125 ± 0.0035 | 0.016 ± 0.027 | 0.412 ± 0.089 |
| MyoF:Decorin | -0.006 ± 0.0085 | 0.0195 ± 0.013 | 0.0325 ± 0.016 | 0.0265 ± 0.053 | 0.031 ± 0.037 | 0.0125 ± 0.028 | 0.0545 ± 0.0035 | 0 ± 0.013 | -0.0065 ± 0.013 | 0.012 | -0.0145 ± 0.0021 | -0.004 ± 0.0057 | 0 ± 0.089 | 0.029 ± 0.12 | 0.0455 ± 0.15 | -0.024 ± 0.041 | 0.0175 ± 0.079 | -0.0075 ± 0.063 | 0.033 ± 0.037 |
